ChEMBL document CHEMBL3046483, “Novel 2'-hydroxylfurylchalcones: synthesis and biological activity” (2010)
The source made the active and inactive calls. The calls are words filed in the database; no cut-off is given here.

Tests used:
[1] = system: Dinebra chinensis; experiment: Herbicidal activity against Dinebra chinensis assessed as inhibitory rate of seedling height at 7.5 g/hm'2 relative to control; type: functional
[2] = system: Dinebra chinensis; experiment: Herbicidal activity against Dinebra chinensis assessed as inhibitory rate of fresh weight gain at 7.5 g/hm'2 relative to control; type: functional
[3] = system: Triticum aestivum; experiment: Herbicidal activity against Triticum aestivum (wheat) assessed as inhibitory rate of fresh weight gain at 7.5 g/hm'2 relative to control; type: functional
[4] = system: Triticum aestivum; experiment: Herbicidal activity against Triticum aestivum (wheat) assessed as inhibitory rate of seedling height at 7.5 g/hm'2 relative to control; type: functional
[5] = system: Amaranthus tricolor; experiment: Herbicidal activity against Amaranthus tricolor assessed as inhibitory rate of fresh weight gain at 7.5 g/hm'2 relative to control; type: functional
[6] = system: Amaranthus tricolor; experiment: Herbicidal activity against Amaranthus tricolor assessed as inhibitory rate of seedling height at 7.5 g/hm'2 relative to control; type: functional
[7] = system: Brassica rapa subsp. oleifera; experiment: Herbicidal activity against Brassica rapa subsp. oleifera assessed as inhibitory rate of fresh weight gain at 7.5 g/hm'2 relative to control; type: functional
[8] = system: Brassica rapa subsp. oleifera; experiment: Herbicidal activity against Brassica rapa subsp. oleifera assessed as inhibitory rate of seedling height at 7.5 g/hm'2 relative to control; type: functional
[9] = system: Cucumis sativus; experiment: Herbicidal activity against Cucumis sativus (cucumber) assessed as inhibitory rate of fresh weight gain at 7.5 g/hm'2 relative to control; type: functional
[10] = system: Cucumis sativus; experiment: Herbicidal activity against Cucumis sativus (cucumber) assessed as inhibitory rate of seedling height at 7.5 g/hm'2 relative to control; type: functional
[11] = system: Golovinomyces cichoracearum; experiment: Antifungal activity against Golovinomyces cichoracearum assessed as cucumber powdery mildew control measured after 1 day; type: functional; design: concentration or dose not given beside the values
[12] = system: Pyricularia grisea; experiment: Antifungal activity against Magnaporthe grisea assessed as rice blast control measured after 1 day; type: functional, organism-based
[13] = system: Pseudoperonospora cubensis; experiment: Antifungal activity against Pseudoperonospora cubensis assessed as cucumber downy mildew control measured after 1 day; type: functional, organism-based
[14] = system: Botrytis cinerea; experiment: Antifungal activity against Botryotinia fuckeliana assessed as cucumber grey mould control measured after 1 day; type: functional, organism-based
[15] = system: Sorghum bicolor; experiment: Herbicidal activity against Sorghum bicolor assessed as inhibitory rate of fresh weight gain at 7.5 g/hm'2 relative to control; type: functional
[16] = system: Sorghum bicolor; experiment: Herbicidal activity against Sorghum bicolor assessed as inhibitory rate of seedling height at 7.5 g/hm'2 relative to control; type: functional

| SMILES | inhibition (INH) [1] [%] | inhibition (INH) [2] [%] | inhibition (INH) [3] [%] | inhibition (INH) [4] [%] | inhibition (INH) [5] [%] | inhibition (INH) [6] [%] | inhibition (INH) [7] [%] | inhibition (INH) [8] [%] | inhibition (INH) [9] [%] | inhibition (INH) [10] [%] | Activity [11] [%] | Activity [12] | Activity [13] | Activity [14] | inhibition (INH) [15] [%] | inhibition (INH) [16] [%] |
| --- | --- | --- | --- | --- | --- | --- | --- | --- | --- | --- | --- | --- | --- | --- | --- | --- |
| O=C(/C=C/c1ccc(Br)cc1)c1occc1O | 4.2 | 66.7 | 64.2 | 42.5 | 71.7 | 37.5 | 66.7 | 52.4 | 34.5 | 40.5 | <10 | inactive | inactive | inactive |  |  |
| O=C(/C=C/c1cccc([N+](=O)[O-])c1)c1occc1O | 1.4 | 63.1 | 52.5 | 33.9 | 74.8 | 25 | 85.9 | 52.4 | 40.6 | 46.8 | <10 | inactive | inactive | inactive |  |  |
| O=C(/C=C/c1ccc(Cl)cc1)c1occc1O | -3.9 | 52.6 | 64.6 | 41.8 | 81.2 | 37.5 | 83.5 | 52.4 | 68.2 | 36.5 | <10 | inactive | inactive | inactive |  |  |
| O=C(/C=C/c1ccc2ccccc2c1)c1occc1O | -7.4 | 55.9 | 45.4 | 27.1 | 90.6 | 37.5 | 72.9 | 52.4 | 44 | 41.3 | <10 | inactive | inactive | inactive |  |  |
| COc1ccc(/C=C/C(=O)c2occc2O)cc1 | 2.1 | 60.4 | 53.3 | 35.4 | 54.8 | 37.5 | 72.3 | 38.1 | 35.3 | 33.3 | <10 | inactive | inactive | inactive |  |  |
| O=C(/C=C/c1ccccc1)c1occc1O | -4.4 | 31.3 | 46.2 | 37.2 | 32.6 | 18.8 | 60.3 | 38.1 | 1.3 | 33.7 | <10 | inactive | inactive | inactive | 36 | 55.3 |
| COC(=O)[C@@H](C)Oc1ccc(Oc2ncc(C(F)(F)F)cc2Cl)cc1 [HALOXYFOP-P-METHYL] | 100 | 100 | 100 | 100 | 21.6 | 2.1 | 17.2 | 44.4 | 31.5 | 42.1 |  |  |  |  | 100 | 100 |
| O=C(/C=C/c1ccc(Cl)cc1Cl)c1occc1O | -0.7 | 57.1 | 63.4 | 39.5 | 69.6 | 18.8 | 87.2 | 42.9 | 37.3 | 35.1 | <10 | inactive | inactive | inactive |  |  |
| O=C(/C=C/c1ccccn1)c1occc1O | 6.7 | 37.4 | 40.9 | 37 | 23.9 | 18.8 | 31.8 | 52.4 | 33.1 | 31 | <10 | inactive | inactive | inactive | 11.3 | 13.6 |
| O=C(/C=C/c1ccc(F)cc1)c1occc1O | 3.5 | 19 | 40.6 | 37 | 24.3 | 6.3 | 15.1 | 19 | 17.5 | 56.8 | <10 | inactive | inactive | inactive |  |  |
